The subject of this assay is THP-1 Lucia ISG cells. Put plainly: ISG-LUC activation assay (ISRE-luciferase assay). It counts as cell-based. The following applies: Homo sapiens, THP1-Lucia ISG; THP-1 Lucia ISG reporter cells, 24 hours; score based upon potency and efficacy relative to reference compound; read-out: ISG-LUC activation assay score. An excerpt:
We have established a robust platform for identifying non-nucleotide small molecule STING agonists. his has been established using a primary assay involving a human THP-1 cell line carrying an IRF-inducible reporter with 5 copies of the IFN signaling response element. Counter screens, involving alternative reporter constructs, rodent cell-based assays, as well as cGAS and STING knock-out cell lines, are used to eliminate luciferase artifacts and ensure human-rodent cross species reactivity, as well as pathway selectivity. Biochemical assays, involving cGAS enzymatic activity and STING protein binding assays, are used to identify the specific target of identified hits.
Tissue culture. Wild-type (cat. no. thpl-isg) and STING KO (cat. no. thpd-kostg) THP-1-Lucia ISG cells were purchased from Invivogen and maintained in growth media consisting of RPMI 1640, 2mM L-glutamine, […], 10% heat-inactivated fetal bovine serum (FBS), 1,000 units/ml penicillin, 1,000 μg/ml streptomycin, 0.25 μg/ml Amphotericin B, and 100 μg/ml zeocin unless otherwise stated.
ISRE-luciferase assay. THP-1 Lucia ISG cells were resuspended in low-serum growth media (2% FBS) at a density of 5×10^5 cells/ml and treated with test article or vehicle (DMSO). 50 μL of cells were seeded into each well of a 384-well white greiner plates and incubated for 24 hours. To evaluate expression of the luciferase reporter, 30 μl of Quanti-luc (Invivogen) detection reagent was added to each well and luminescence was read using an Envision plate reader (Perkin Elmer) set with an integration time of 0.1 seconds.

60 molecules from US20220332720A1, “BICYCLIC AGONISTS OF STIMULATOR OF INTERFERON GENES STING” (The Scripps Research Institute, priority 2019, published 2022) can be followed below.

Regarding `CC#Cc1cc(NC(=O)c2cc(N)c3nnnn3n2)c(C(=O)OC)cc1F` [Compound 39], the EC50 is above 1 µM.

On to `COC(=O)c1cc(C#N)c(Cl)cc1NC(=O)c1cnc2nc[nH]c2c1` [Compound 72], for which the EC50 is above 20 µM. As for `COC(=O)c1cc(Cl)c(Cl)cc1NC(=O)c1nn2nnnc2cc1N` [Compound 65], the EC50 is below 0.9 µM. For `COC(=O)c1cc(F)c(OC)cc1NC(=O)c1cc(N)c2nnnn2n1` [Compound 67] the value was below 0.9 µM; for `C#Cc1cc(NC(=O)c2cc(N)nn3nnnc23)c(C(=O)OC)cc1F` [Compound 19], below 0.9 µM; for `COc1cc(NC(=O)c2ccn3c(N)nnc3n2)c(C(=O)O)cc1F` [Compound 58], above 20 µM. For `Nc1cc(C(=O)Nc2cc(Cl)c(Cl)cc2C(=O)O)nn2nnnc12` [Compound 82] the value was above 1 µM; for `COc1cc(NC(=O)c2ccc3cnnn3n2)c(C(=O)O)cc1F` [Compound 6], below 3 µM. For `C#Cc1cc(NC(=O)c2cc(N)n3c(C#N)cnc3n2)c(C(=O)O)cc1F` [Compound 46] the value was above 20 µM. Turning to `C#Cc1cc(NC(=O)c2cc(N)c3ncnn3n2)c(C(=O)O)cc1F` [Compound 8], the EC50 is above 1 µM. In the case of `COC(=O)c1cc(F)c(F)cc1NC(=O)N1CCn2cncc2C1` [Compound 76] it was above 1 µM. `CCOC(=O)c1nc(Cl)sc1NC(=O)c1cc(N)c2nnnn2n1` [Compound 45]: the EC50 is above 1 µM. For `C#Cc1cc(NC(=O)c2cc(N)n3ccnc3n2)c(C(=O)O)cc1F` [Compound 32] the value was above 1 µM. As to `C#Cc1cc(NC(=O)c2ccc3c(C(N)=O)nnn3n2)c(C(=O)O)cc1F` [Compound 12], the EC50 was below 3 µM. In the case of `C#Cc1cc(NC(=O)c2cc(N)c3nnnn3n2)c(C(=O)O)cc1Cl` [Compound 14] it was below 3 µM. For `COC(=O)c1cc(F)c(F)cc1NC(=O)c1ccn2c(C#N)cnc2n1` [Compound 75] the value was above 1 µM; for `C#Cc1cc(NC(=O)c2ccn3c(-c4cn[nH]c4)cnc3n2)c(C(=O)O)cc1F` [Compound 4, 2-(3-(1H-pyrazol-4-yl)imidazo[1,2-a]pyrimidine-7-carboxamido)-4-ethynyl-5-fluorobenzoic acid], above 20 µM. As to `O=C(Nc1cc(F)c(F)cc1C(=O)O)c1ccc2nnnn2n1` [Compound 22], the EC50 was above 1 µM. Take `COc1cc(NC(=O)c2cc(N)c3nnnn3n2)c(C(=O)OC(C)OC(C)=O)cc1F` (stereo not drawn) [Compound 54]: the EC50 was below 0.9 µM.

With `C=Cc1ccc(C(=O)OC)c(NC(=O)c2cc(N)c3nnnn3n2)c1` [Compound 64], the EC50 is below 0.9 µM. On to `COc1cc2nc(-c3cc(N)c4nnnn4n3)oc(=O)c2cc1F` [Compound 49], for which the EC50 was below 0.9 µM. In the case of `C#Cc1cc(NC(=O)c2cc(N)c3nnnn3n2)c(C(=O)O[C@@H]2CSSC[C@H]2O)cc1F` [Compound 60] it was above 1 µM; in that of `COC(=O)c1cc(C#N)c(Cl)cc1NC(=O)c1cc2[nH]ncc2cn1` [Compound 90], above 1 µM; in that of `C#Cc1cc2nc(-c3ccc4nnnn4n3)oc(=O)c2cc1F` [Compound 44], below 0.9 µM. For `C#Cc1ccc(NC(=O)c2cc(N)c3nnnn3n2)c(C(=O)O)c1` [Compound 28], the EC50 was above 20 µM.

As for `C#Cc1cc(NC(=O)c2cc(N)c3nnnn3n2)c(C(=O)O)nc1Cl` [Compound 11], the EC50 is above 1 µM. In the case of `Nc1cc(C(=O)Nc2cc(Cl)c(F)cc2C(=O)O)nn2nnnc12` [Compound 83] it was below 0.9 µM; in that of `COc1cc2nc(-c3ccc4nnnn4n3)oc(=O)c2cc1F` [Compound 48], below 0.9 µM; in that of `COC(=O)c1cc(F)c(F)cc1NC(=O)c1ccc2nccn2n1` [Compound 21], above 20 µM. Take `C#Cc1cc(NC(=O)c2ccn3c([S+](C)[O-])nnc3n2)c(C(=O)O)cc1F` (stereo not drawn) [Compound 63]: the EC50 is above 20 µM. For `COC(=O)c1nc(Cl)c(Cl)cc1NC(=O)c1cnc2nc[nH]c2c1` [Compound 25] the value was above 20 µM.

Turning to `COc1cc(NC(=O)c2cc(NC(=O)OC(C)(C)C)c3nnnn3n2)c(C(=O)O)cc1F` [Compound 86], the EC50 is above 1 µM. Regarding `COC(=O)c1sc(C)cc1NC(=O)c1cc(N)c2nnnn2n1` [Compound 38], the EC50 was above 1 µM. In the case of `COc1cc(NC(=O)c2cc(N)c3nnnn3n2)c(C(=O)O)cc1Cl` [Compound 84], the EC50 is above 1 µM.

With `COC(=O)c1cc(F)c(OC)cc1NC(=O)c1cc(NC(=O)OC(C)(C)C)c2nnnn2n1` [Compound 79], the EC50 is above 1 µM. `COC(=O)c1cc(Cl)c(Cl)cc1NC(=O)c1nc2nc(O)ccn2n1` [Compound 77]: the EC50 is above 1 µM.

On to `C=C(F)c1ccc(C(=O)O)c(NC(=O)c2cc(N)c3cnnn3n2)c1` [Compound 33], for which the EC50 was above 1 µM. As to `COc1ccc(C(=O)O)c(NC(=O)c2cc(N)c3nnnn3n2)c1` [Compound 81], the EC50 is above 1 µM.

Regarding `Cc1cc(NC(=O)c2cc(N)c3nnnn3n2)c(C(=O)O)cc1F` [Compound 43], the EC50 was above 1 µM.

With `COc1cc(NC(=O)c2cc(N)c3nnnn3n2)c(C(=O)OC(C)C)cc1F` [Compound 47], the EC50 is above 1 µM. Regarding `C#Cc1cc2nc(-c3cc(N)c4nnnn4n3)oc(=O)c2cc1F` [Compound 2, 2(8-aminotetrazolo[1,5-b]pyridazin-6-yl)-7-ethynyl-6-fluoro-4H-benzo[d][1,3]oxazin-4-one], the EC50 is below 0.9 µM.

`COC(=O)c1cc(F)c(F)cc1NC(=O)c1cccn2cnnc12` [Compound 15]: the EC50 is above 1 µM. In the case of `COC(=O)c1cc(F)c(F)cc1NC(=O)c1cc2[nH]cnc2cn1` [Compound 69] it was below 0.9 µM; in that of `C#Cc1cc(NC(=O)c2ccn3c(-c4cn[nH]c4)cnc3n2)c(C(=O)OC)cc1F` [Compound 20], above 1 µM. For `C#Cc1cc(NC(=O)c2ccn3nc(-c4cn[nH]c4)nc3n2)c(C(=O)O)cc1F` [Compound 51] the value was above 20 µM; for `COC(=O)c1cc(F)c(F)cc1NC(=O)c1nc2cnccn2n1` [Compound 80], above 1 µM. In the case of `COC(=O)c1cc(F)c(OC)cc1NC(=O)c1ccn2c(N)nnc2n1` [Compound 57] it was above 20 µM; in that of `Nc1cc(C(=O)Nc2cc(Cl)c(Cl)cc2C(=O)O)nn2nncc12` [Compound 17], above 1 µM. Regarding `C#Cc1cc(NC(=O)c2cc(N)c3nnnn3n2)c(C(=O)O)cc1C#N` [Compound 36], the EC50 is below 3 µM. For `C#Cc1cc(NC(=O)c2cc(NC(=O)OC(C)(C)C)c3nnnn3n2)c(C(=O)OC)cc1F` [Compound 70] the value was above 1 µM; for `C#Cc1cc(NC(=O)c2cc(N)nn3nnnc23)c(C(=O)O)cc1F` [Compound 50], above 1 µM.

Consider `C#Cc1cc(NC(=O)c2ccc3nnnn3n2)c(C(=O)O)cc1F` [Compound 9], for which the EC50 was below 3 µM. On to `COC(=O)c1cc(Cl)c(Cl)cc1NC(=O)c1nc2n(n1)CCC(=O)N2` [Compound 91], for which the EC50 is above 1 µM. For `COC(=O)c1cc(C#N)c(Cl)cc1NC(=O)c1cc2[nH]cnc2cn1` [Compound 68] the value was above 1 µM; for `COc1cc(NC(=O)c2cc(N)c3nnnn3n2)c(C(=O)O)cc1F` [Compound 73], above 1 µM; for `COC(=O)c1cc(F)c(C)cc1NC(=O)c1cc(N)c2nnnn2n1` [Compound 40], below 0.9 µM. Turning to `C#Cc1cc(NC(=O)c2ccn3nc(N)nc3n2)c(C(=O)O)cc1F` [Compound 37], the EC50 is above 20 µM. In the case of `COc1cc(NC(=O)c2ccc3c(ncn3C)n2)c(C(=O)O)cc1F` [Compound 55] it was above 20 µM; in that of `C/C=C/c1cc(NC(=O)c2cc(N)c3nnnn3n2)c(C(=O)OC)cc1F` [Compound 35], below 0.9 µM; in that of `COC(=O)c1cc(Cl)c(Cl)cc1NC(=O)c1cccn2cnnc12` [Compound 89], above 1 µM.
